Experiments:
HLA-DRB1*0301 = HLA-DRB1*0301 (Homo sapiens, UniProt P01903+P01911, A100K/A102G/A103R/A169T/F55Y/I96L/K41T/L162R/M171V/P40S/Q125H/Q178H/Q39Y/R42S/S66N/T106N/T262R/W38E/Y61H); test: Peptide-MHCII competition binding assay; details: competition ELISA, pH 5.9, peptide 90.000nM – 0.9nM, HLA-DRB1 30 nM, biotinylated peptide 15nM, duplicate wells; ratios below 10 = good binding; reference peptide SFLLTDLINRRTPRVDGQ
[1] = system: CD4 T cells from healthy donors; test: HLA restriction and FVIII specificity IFN-γ ELISPOT of T cell lines raised with the pool of 18 peptides (four donors); assay type: cell-based, human; set-up: key to Protein specificty: +: positive T cell responses to both the full-length FVIII protein (protein specificity); details: for intensity (%): four donors, 87 specific T cell lines in total; for Responding donors (%): four healthy donors, T cell lines amplified with pool of 18 FVIII peptides; for HLA restriction (%) DP / HLA restriction (%) DR: percentage of restricted T cell lines, inhibition higher than 50% of ELISPOT count; for HLA restriction (%) DP: anti-HLA-DP (B7/21) 10 μg/ml; for HLA restriction (%) DR: anti-HLA-DR (L243) 10 μg/ml; for Protein specificty: recognition of rFVIII loaded on autologous DCs by peptide-specific T cell lines
Description: T cells were incubated with autologous DCs alone (control) or with DCs incubated with rFVIII (0.2 µM), ovalbumin (3 µM), and KLH (1 µM) or PBMCs for FVIII peptides (10 µg/ml) in MultiScreen 96-well plates (Merck Millipore) previously coated with 2.5 µg/mL of anti-human IFN-γ monoclonal antibody (mAb; 1-D1K; Mabtech). The T cell lines and APCs were plated at equal number for both stimulated and unstimulated control conditions. […] The spot number was determined by using the ELISPOT Reader System (Autoimmun Diagnostika, Ebinger, Germany). HLA restriction was assessed using monoclonal antibodies (10 μg/ml) specific to HLA-DP (B7/21), HLA-DQ (SPVL3), or HLA-DR (L243).
Based on the T cell epitope prediction software NetMHCpan4.0 ([23]), we selected 63 20-mer peptides that are predicted for their ability to bind promiscuously, with a percentile score below 10%, at least four HLA class II molecules from a selection of 15 preponderant HLA-DR alleles in our panel (as shown in ST1). The predicted peptides spread all along the full-length FVIII sequence and account for more than 50% of its amino acid coverage. A total of 16 healthy donors with unrelated HLA typing (ST2) were used as sources of T cells to identify FVIII-specific CD4 T cell epitopes. Specific T cell lines were generated by in vitro T cell culture using FVIII and KLH. The peptide specificity of the T cell lines raised against FVIII was assessed by two independent IFN-γ ELISPOT using peptide pools and individual peptides. All donors responded to rFVIII with a total of 409 identified rFVIII-specific T cell lines (Figure 4A). The mean of CD4 T cell precursors was 6.5 cells/M (Figure 4B). Each of the 63 FVIII peptides induced a T cell response in at least one of the donors tested, among the 16 healthy donors tested, with 872 peptide-specific T cell lines identified (Figure 4C). The CD4 T cell epitopes identified were ranked based on their donor coverage capacity (Figure 4D) and response intensity (Figure 4E). Furthermore, 18 out of 63 FVIII T cell epitopes were responsible for 50% of the total T cell response and 100% of the donor coverage. These immunoprevalent epitopes are located in the A1, A3, C1, and C2 domains of the FVIII protein (ST3). Furthermore, four independent healthy donors were used as sources of T cells to characterize the HLA restriction and to assess the reactivity of T cell lines generated with the 18 peptides toward rFVIII. T cell lines were amplified in vitro for 28 days through stimulation with the pool of 18 peptides and then tested through IFN-γ ELISPOT. All four healthy donors tested responded to the pool of 18 FVIII peptides selected, with a total of 87 specific T cell lines identified. Moreover, 16 out of 18 FVIII peptides in the pool generated a specific T cell response among the four donors. A total of 14 of the T cell peptides were tested for recognition of rFVIII-loaded on autologous DCs, and it was confirmed that they were part of the naturally processed FVIII peptides. HLA restriction was assessed by introducing anti-HLA-DR, anti-HLA-DP, and anti-HLA-DQ antibodies. None of the peptides tested was HLA-DQ restricted. Eight peptides were exclusively HLA-DR-restricted, one peptide was HLA-DP, and seven were promiscuously presented on both HLA-DR and HLA-DP molecules (ST4). […] Furthermore, the 18 FVIII peptides selected were ulteriorly tested in an in vitro binding assay to six HLA-DRB1 molecules (as described in ST5).
Four healthy donors were used as the source of CD4 T cells, which were amplified in vitro with the pool of 18 FVIII peptides selected for study. In an initial IFN-γ ELISPOT assay, we screened each of the 18 peptides individually to identify any positive T cell responses to both the full-length FVIII protein (protein specificity) as well as the specific peptide inducing the response. […]

HLA-DRB1*1501 = HLA-DRB1*1501 (Homo sapiens, UniProt P01903+P01911); test: Peptide-MHCII competition binding assay; details: competition ELISA, pH 5.9, peptide 90.000nM – 0.9nM, HLA-DRB1 30 nM, biotinylated peptide 15nM, duplicate wells; ratios below 10 = good binding; reference peptide ENPVVHFFKNIVTPR

Sequence	Ratio IC50 DRB1*0301 (HLA-DRB1*0301)	intensity (%) [1]	Responding donors (%) [1] [%]	HLA restriction (%) DP [1] [%]	HLA restriction (%) DR [1] [%]	Protein specificty [1]	Ratio IC50 DRB1*1501 (HLA-DRB1*1501)
ATRRYYLGAVELSWDYMQSD [P20-39, 20-mer FVIII peptide, A1 domain]	850	4,6%	50	37	63	+	–
DHLFNIAKPRPPWMGLLGPT [P75-94, 20-mer FVIII peptide, A1 domain]	40	1,1%	25	100	–	+	0.0
HPQSWVHQIALRMEVLGCEA [P2328-2347, 20-mer FVIII peptide, C2 domain]	0.0	1,1%	25	–	100	+	–
INGYIMDTLPGLVMAQDQRI [P1940-1959, 20-mer FVIII peptide, A3 domain]	–	1,1%	25	–	100	–	–
KARLHLQGRSNAWRPQVNNP [P2226-2245, 20-mer FVIII peptide, C2 domain]	33	12,6%	50	23	77	+	0.6
KEPFSWIKVDLLAPMIIHGI [P2084-2103, 20-mer FVIII peptide, C1 domain]	6.6	19,5%	100	47	53	+	–
KKEEYKMALYNLYPGVFETV [P1986-2005, 20-mer FVIII peptide, A3 domain]	–	1,1%	25	–	100	+	0.4
KLARLHYSGSINAWSTKEPF [P2068-2087, 20-mer FVIII peptide, C1 domain]	–	1,1%	25	–	100	–	20
LGQFLLFCHISSHQHDGMEA [P322-341, 20-mer FVIII peptide, A1 domain]	–	4,6%	50	–	100	+	0.05
LLTRYLRIHPQSWVHQIALR [P2320-2339, 20-mer FVIII peptide, C2 domain]	114	2,3%	25	25	75	+	0.0
LSHVDLVKDLNSGLIGALLV [P178-197, 20-mer FVIII peptide, A1 domain]	0.05	4,6%	75	50	50	+	95
PPIIARYIRLHPTHYSIRST [P2161-2180]	21	9,2%	75	19	81	+	0.05
RHYFIAAVERLWDYGMSSSP [P1715-1734, 20-mer FVIII peptide, A3 domain]	–	18,4%	75	–	100	+	77
SLYISQFIIMYSLDGKKWQT [P2114-2133, 20-mer FVIII peptide, C1 domain]	30	3,4%	50	33	66	+	4
VHSIFLEGHTFLVRNHRQAS [P285-304, 20-mer FVIII peptide, A1 domain]	58	3,4%	50	–	100	+	11
YDTVVITLKNMASHPVSLHA [P100-119, 20-mer FVIII peptide, A1 domain]	30	8%	50	–	100	+	0.5
